{"source": "patent US20080132505A1", "about": "(Glaxo Group Limited, priority 2004, published 2008)", "target": "human cannabinoid CB2 receptor (Homo sapiens, UniProt P34972)", "sequence (P34972 whole entry)": "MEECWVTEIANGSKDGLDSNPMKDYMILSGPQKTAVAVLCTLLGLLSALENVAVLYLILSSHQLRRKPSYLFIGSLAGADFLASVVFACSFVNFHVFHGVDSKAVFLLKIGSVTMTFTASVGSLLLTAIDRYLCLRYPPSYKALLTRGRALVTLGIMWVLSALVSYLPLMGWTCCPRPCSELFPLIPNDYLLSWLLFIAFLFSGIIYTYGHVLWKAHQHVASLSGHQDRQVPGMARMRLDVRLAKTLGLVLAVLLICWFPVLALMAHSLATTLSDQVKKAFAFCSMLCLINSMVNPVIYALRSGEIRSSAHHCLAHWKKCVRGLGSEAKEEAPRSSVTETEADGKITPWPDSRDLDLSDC", "assay": "Cannabinoid CB2 receptor agonist activity (yeast reporter assay, FDGlu fluorescence)", "type": "cell-based", "settings": "for EC50: EC50 value at the cloned human cannabinoid CB2 receptor; for Emax: read-out: efficacy value (Emax relative to HU210) at the cloned human cannabinoid CB2 receptor", "experimental": "Determination of Cannabinoid CB2 Receptor Agonist Activity\nThe cannabinoid CB2 receptor agonist activity of the compounds of formula (I)-(IV) was determined in accordance with the following experimental method.\nYeast (Saccharomyces cerevisiae) cells expressing the human cannabinoid CB2 receptor were generated by integration of an expression cassette into the ura3 chromosomal locus of yeast strain MMY23. This cassette consisted of DNA sequence encoding the human CB2 receptor flanked by the yeast GPD promoter to the 5′ end of CB2 and a yeast transcriptional terminator sequence to the 3′ end of CB2. MMY23 expresses a yeast/mammalian chimeric G-protein alpha subunit in which the C-terminal 5 amino acids of Gpa1 are replaced with the C-terminal 5 amino acids of human Gαi3 (as described in Brown et al. (2000), Yeast 16:11-22). Cells were grown at 30° C. in liquid Synthetic Complete (SC) yeast media (Guthrie and Fink (1991), Methods in Enzymology, Vol. 194) lacking uracil, tryptophan, adenine and leucine to late logarithmic phase (approximately 6 OD600/ml).\nAgonists were prepared as 10 mM stocks in DMSO. […] Agonist solutions in DMSO (1% final assay volume) were transferred into black, clear bottom, microtitre plates from NUNC (96- or 384-well). Cells were suspended at a density of 0.2 OD600/ml in SC media lacking histidine, uracil, tryptophan, adenine and leucine and supplemented with 10 mM 3-aminotriazole, 0.1M sodium phosphate pH 7.0, and […] fluorescein di-β-D-glucopyranoside (FDGlu). This mixture (50 ul per well for 384-well plates, 200 ul per well for 96-well plates) was added to agonist in the assay plates (Multidrop 384, Labsystems). After incubation at 30° C. for 24 hours, fluorescence resulting from degradation of FDGlu to fluorescein due to exoglucanase, an endogenous yeast enzyme produced during agonist-stimulated cell growth, was determined using a Spectrofluor microtitre plate reader (Tecan; excitation wavelength: 485 nm; emission wavelength: 535 nm). Fluorescence was plotted against compound concentration and iteratively curve fitted using a four parameter fit to generate a concentration effect value. Efficacy (Emax) was calculated from the equation\nwhere Max[compound X] and Min[compound X] are the fitted maximum and minimum respectively from the concentration effect curve for compound X, and Max[HU210] and Min[HU210] are the fitted maximum and minimum respectively from the concentration effect curve for (6aR,10aR)-3-(1,1′-Dimethylheptyl)-6a,7,10,10a-tetrahydro-1-hydroxy-6,6-dimethyl-6H-dibenzo[b,d]pyran-9-methanol (HU210; available from Tocris). Equieffective molar ratio (EMR) values were calculated from the equation\nWhere EC50 [compound X] is the EC50 of compound X and EC50 [HU210] is the EC50 of HU210.", "data": [{"smiles": "O=C(NCC1CCC1)c1cnc(Nc2cccc(Cl)c2)nc1C(F)(F)F", "note": "[Example 54, 2-(3-Chlorophenylamino)-4-trifluoromethylpyrimidine-5-carboxylic acid cyclobutylmethyl-amide]", "values": [{"measurement": "EC50", "result": "20 to 300", "unit": "nM"}, {"measurement": "Emax", "result": "> 50", "unit": "%"}]}, {"smiles": "O=C(NCC1CCOCC1)c1cnc(Nc2c(Cl)cccc2Cl)nc1C(F)(F)F", "note": "[Example 55, 2-(2,6-Dichlorophenylamino)-4-trifluoromethyl-pyrimidine-5-carboxylic acid (tetrahydro-pyran-4-ylmethyl)-amide]", "values": [{"measurement": "EC50", "result": "20 to 300", "unit": "nM"}, {"measurement": "Emax", "result": "> 50", "unit": "%"}]}, {"smiles": "O=C(c1cnc(Nc2ccc(Cl)c(Cl)c2)nc1C(F)(F)F)N1CCOCC1", "note": "[Example 68, 1-[2-(3,4-Dichlorophenylamino)-4-trifluoromethylpyrimidin-5-yl]-1-(morpholin-4-yl)-methanone]", "values": [{"measurement": "EC50", "result": "20 to 300", "unit": "nM"}, {"measurement": "Emax", "result": "> 50", "unit": "%"}]}, {"smiles": "O=C(NC[C@H]1CCCO1)c1cnc(Nc2cccc(F)c2)nc1C(F)(F)F", "note": "[Example 73, 2-(3-Fluoro-phenylamino)-4-trifluoromethyl-pyrimidine-5-carboxylic acid [(R)-1-(tetrahydro-furan-2-yl)methyl]-amide]", "values": [{"measurement": "Emax", "result": "> 50", "unit": "%"}]}, {"smiles": "O=C(NC1CCCC1)c1cnc(Nc2ccc(Cl)c(Cl)c2)nc1C(F)(F)F", "note": "[Example 74, 3,4-Dichlorophenylamino-4-trifluoromethyl-pyrimidine-5-carboxylic acid cyclopentylamide]", "values": [{"measurement": "EC50", "result": "300 to 1000", "unit": "nM"}, {"measurement": "Emax", "result": "> 50", "unit": "%"}]}, {"smiles": "O=C(NC1CCCC1)c1cnc(Nc2cc(Cl)cc(Cl)c2)nc1C(F)(F)F", "note": "[Example 75, 3,5-Dichlorophenylamino-4-trifluoromethyl-pyrimidine-5-carboxylic acid cyclopentylamide]", "values": [{"measurement": "EC50", "result": "300 to 1000", "unit": "nM"}, {"measurement": "Emax", "result": "> 50", "unit": "%"}]}, {"smiles": "COc1cccc(Nc2ncc(C(=O)NC3CCCC3)c(C(F)(F)F)n2)c1", "note": "[Example 76, 3-Methoxyphenylamino-4-trifluoromethyl-pyrimidine-5-carboxylic acid cyclopentylamide]", "values": [{"measurement": "EC50", "result": "300 to 1000", "unit": "nM"}, {"measurement": "Emax", "result": "> 50", "unit": "%"}]}, {"smiles": "O=C(NC1CCCC1)c1cnc(Nc2cccc(Cl)c2Cl)nc1C(F)(F)F", "note": "[Example 77, 2,3-Dichlorophenylamino-4-trifluoromethyl-pyrimidine-5-carboxylic acid cyclopentylamide]", "values": [{"measurement": "EC50", "result": "300 to 1000", "unit": "nM"}, {"measurement": "Emax", "result": "> 50", "unit": "%"}]}, {"smiles": "O=C(c1cnc(Nc2cccc(F)c2)nc1C(F)(F)F)N1CCCCC1", "note": "[Example 78, 1-[2-(3-fluorophenylamino)-4-trifluoromethyl-pyrimidin-5-yl]-1-piperidin-1-yl-methanone]", "values": [{"measurement": "EC50", "result": "300 to 1000", "unit": "nM"}, {"measurement": "Emax", "result": "> 50", "unit": "%"}]}, {"smiles": "CS(=O)(=O)N1CCN(C(=O)c2cnc(Nc3cccc(Cl)c3)nc2C(F)(F)F)CC1", "note": "[Example 79, 1-[2-(3-chlorophenylamino)-4-trifluoromethyl-pyrimidin-5-yl]-1-(4-methanesulfonyl-piperazin-1-yl)-methanone]", "values": [{"measurement": "EC50", "result": "300 to 1000", "unit": "nM"}, {"measurement": "Emax", "result": "> 50", "unit": "%"}]}, {"smiles": "O=C(NC[C@H]1CCCO1)c1cnc(Nc2cccc(Br)c2)nc1C(F)(F)F", "note": "[Example 80, 2-(3-bromophenylamino)-4-trifluoromethyl-pyrimidine-5-carboxylic acid [R-1-(tetrahydrofuran-2-yl)methyl]-amide]", "values": [{"measurement": "EC50", "result": "300 to 1000", "unit": "nM"}, {"measurement": "Emax", "result": "> 50", "unit": "%"}]}, {"smiles": "O=C(NC1CCS(=O)(=O)CC1)c1cnc(Nc2cccc(Cl)c2Cl)nc1C(F)(F)F", "note": "[Example 82, 2-(2,3-Dichlorophenylamino)-4-trifluoromethyl-pyrimidine-5-carboxylic acid (1,1-dioxo-tetrahydro-2H-thiopyran-4-yl)-amide]", "values": [{"measurement": "EC50", "result": "300 to 1000", "unit": "nM"}, {"measurement": "Emax", "result": "> 50", "unit": "%"}]}, {"smiles": "O=C(NCC1CC1)c1cnc(Nc2cccc(F)c2)nc1C(F)(F)F", "note": "[Example 83, 2-(3-Fluoro-phenylamino)-4-trifluoromethyl-pyrimidine-5-carboxylic acid cyclopropylmethyl-amide]", "values": [{"measurement": "EC50", "result": "300 to 1000", "unit": "nM"}, {"measurement": "Emax", "result": "> 50", "unit": "%"}]}, {"smiles": "O=C(NCC1CC1)c1cnc(Nc2cccc(Cl)c2)nc1C(F)(F)F", "note": "[Example 84, 2-(3-Chloro-phenylamino)-4-trifluoromethyl-pyrimidine-5-carboxylic acid cyclopropylmethyl-amide]", "values": [{"measurement": "EC50", "result": "300 to 1000", "unit": "nM"}, {"measurement": "Emax", "result": "> 50", "unit": "%"}]}, {"smiles": "O=C(c1cnc(Nc2cc(Cl)ccc2Cl)nc1C(F)(F)F)N1CCCCC1", "note": "[Example 85, 1-[2-(2,5-Dichloro-phenylamino)-4-tri-fluoromethyl-pyrimidin-5-yl]-1-piperidin-1-yl-methanone]", "values": [{"measurement": "EC50", "result": "300 to 1000", "unit": "nM"}, {"measurement": "Emax", "result": "> 50", "unit": "%"}]}, {"smiles": "O=C(NCC1(O)CCOCC1)c1cnc(Nc2cccc(Br)c2)nc1C(F)(F)F", "note": "[Example 87, 2-(3-Bromophenyl-amino)-4-trifluoromethyl-pyrimidine-5-carboxylic acid (4-hydroxytetrahydropyran-4-ylmethyl)amide]", "values": [{"measurement": "EC50", "result": "300 to 1000", "unit": "nM"}, {"measurement": "Emax", "result": "> 50", "unit": "%"}]}, {"smiles": "O=C(NCC1CCCCC1)c1cnc(Nc2cc(C(F)(F)F)cc(C(F)(F)F)c2)nc1C(F)(F)F", "note": "[Example 88, 2-(3,5-Bis-trifluoromethyl-phenylamino)-4-trifluoromethyl-pyrimidine-5-carboxylic acid cyclohexylmethyl-amide]", "values": [{"measurement": "EC50", "result": "300 to 1000", "unit": "nM"}, {"measurement": "Emax", "result": "> 50", "unit": "%"}]}, {"smiles": "N#Cc1cc(C#N)cc(Nc2ncc(C(=O)NCC3CCCCC3)c(C(F)(F)F)n2)c1", "note": "[Example 89, 2-(3,5-Dicyano-phenylamino)-4-trifluoromethyl-pyrimidine-5-carboxylic acid cyclohexylmethyl-amide]", "values": [{"measurement": "EC50", "result": "300 to 1000", "unit": "nM"}, {"measurement": "Emax", "result": "> 50", "unit": "%"}]}, {"smiles": "O=C(NCC1CCCCC1)c1cnc(Nc2cc(F)cc(C(F)(F)F)c2)nc1C(F)(F)F", "note": "[Example 90, 2-(3-Fluoro-5-trifluoromethyl-phenylamino)-4-trifluoromethyl-pyrimidine-5-carboxylic acid cyclohexylmethyl-amide]", "values": [{"measurement": "EC50", "result": "300 to 1000", "unit": "nM"}, {"measurement": "Emax", "result": "> 50", "unit": "%"}]}, {"smiles": "O=C(NCC1CCCCC1)c1cnc(Nc2cc(Br)cc(C(F)(F)F)c2)nc1C(F)(F)F", "note": "[Example 91, 2-(3-Bromo-5-trifluoromethyl-phenylamino)-4-trifluoromethyl-pyrimidine-5-carboxylic acid cyclohexylmethyl-amide]", "values": [{"measurement": "EC50", "result": "300 to 1000", "unit": "nM"}, {"measurement": "Emax", "result": "> 50", "unit": "%"}]}, {"smiles": "Cc1cccc(Nc2ncc(C(=O)NCC3CCCCC3)c(C(F)(F)F)n2)c1Cl", "note": "[Example 92, 2-(2-Chloro-3-methyl-phenylamino)-4-trifluoromethyl-pyrimidine-5-carboxylic acid cyclohexylmethyl-amide]", "values": [{"measurement": "EC50", "result": "300 to 1000", "unit": "nM"}, {"measurement": "Emax", "result": "> 50", "unit": "%"}]}, {"smiles": "Cc1c(Cl)cccc1Nc1ncc(C(=O)NCC2CCCCC2)c(C(F)(F)F)n1", "note": "[Example 93, 2-(3-Chloro-2-methyl-phenylamino)-4-trifluoromethyl-pyrimidine-5-carboxylic acid cyclohexylmethyl-amide]", "values": [{"measurement": "EC50", "result": "300 to 1000", "unit": "nM"}, {"measurement": "Emax", "result": "> 50", "unit": "%"}]}, {"smiles": "Cc1cc(Cl)ccc1Nc1ncc(C(=O)NCC2CCCCC2)c(C(F)(F)F)n1", "note": "[Example 94, 2-(4-Chloro-2-methyl-phenylamino)-4-trifluoromethyl-pyrimidine-5-carboxylic acid cyclohexylmethyl-amide]", "values": [{"measurement": "EC50", "result": "300 to 1000", "unit": "nM"}, {"measurement": "Emax", "result": "> 50", "unit": "%"}]}, {"smiles": "Cc1cc(Cl)cc(C)c1Nc1ncc(C(=O)NCC2CCCCC2)c(C(F)(F)F)n1", "note": "[Example 95, 2-(4-Chloro-2,6-dimethyl-phenylamino)-4-trifluoromethyl-pyrimidine-5-carboxylic acid cyclohexylmethyl-amide]", "values": [{"measurement": "EC50", "result": "300 to 1000", "unit": "nM"}, {"measurement": "Emax", "result": "> 50", "unit": "%"}]}, {"smiles": "O=C(NCC1CCCC1)c1cnc(Nc2cc(F)cc(F)c2)nc1C(F)(F)F", "note": "[Example 96, 2-(3,5-Difluoro-phenylamino)-4-trifluoromethyl-pyrimidine-5-carboxylic acid cyclopentylmethyl-amide]", "values": [{"measurement": "EC50", "result": "300 to 1000", "unit": "nM"}, {"measurement": "Emax", "result": "> 50", "unit": "%"}]}]}
